Ends that are not written are not given here.
Tested on: EAE
Parameters: species or system New Zealand white rabbits
Details: rabbit, in vivo
Protocol: The emulsion was injected SC in multiple sites in the dorsal area of the neck and the tail. Rabbits were immunized either with the free peptide or with peptide conjugated to KLH. […] All rabbits were bled via the ear vein after they were placed in restraining cages and tranquilized with ace-promozine. To prevent hypovolemia, the amount of blood removed was replaced with sterile saline. Sera from individual rats or rabbits were prepared from clotted blood by centrifugation. All sera were decomplemented for 30 minutes at 56°C and frozen in small aliquots to which sodium azide was added.

## DMGHGLRLIHYSYDVNSTEKG [TCR Vβ8(39-59)]
  Clinical Signs of EAE: None

— patent publication EP0552142B2, “T CELL RECEPTOR PEPTIDES AS THERAPEUTICS FOR AUTOIMMUNE AND MALIGNANT DISEASE” (priority 1989, dated 1991)
